This is an account of results in patent US10988477B2 (Merck Patent GmbH, priority 2018, dated 2021).

For experiment [1], the target named is intracellular GCN2 (phosphorylation of the GCN2 substrate eIF2α) (Homo sapiens, UniProt Q9P2K8). Kind of experiment: GCN2 cellular inhibition assay (AlphaScreen SureFire P-eIF2α Ser51, borrelidin-treated U2OS cells). Format: cell-based. The method, boiled down:
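U2OS, overnight attach; cpd 4-fold serial dil. from 40 μM final; borrelidin 10 μM, 1 h 37 °C/5% CO2; lyse; AlphaScreen P-eIF2α Ser51 (acceptor 2 h, donor overnight, RT, dark); % inhib. vs borrelidin-only.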
Background: Bead proximity is the source of the signal in Alpha formats.

The target in a further experiment is GCN2 kinase (Homo sapiens, UniProt Q9P2K8). Kind of experiment: GCN2 enzyme inhibition assay (Transcreener ADP2 fluorescence polarization). The experiment is classed as biochemical. The following applies: 280 μM ATP. The method, boiled down: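 Human GCN2 (4 nM) preincubated 10 min with compound (0–8 μM) and 200 μM (RS)7 peptide in Tris-HCl pH 7.5, NaCl, MgCl2, DTT. Reaction started with 280 μM ATP, run 1 h at 25 °C. ADP detected by Transcreener fluorescence polarization. IC50 and Ki(app) fitted by tight-binding algorithm.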
Sequence of GCN2 kinase (Q9P2K8 whole entry): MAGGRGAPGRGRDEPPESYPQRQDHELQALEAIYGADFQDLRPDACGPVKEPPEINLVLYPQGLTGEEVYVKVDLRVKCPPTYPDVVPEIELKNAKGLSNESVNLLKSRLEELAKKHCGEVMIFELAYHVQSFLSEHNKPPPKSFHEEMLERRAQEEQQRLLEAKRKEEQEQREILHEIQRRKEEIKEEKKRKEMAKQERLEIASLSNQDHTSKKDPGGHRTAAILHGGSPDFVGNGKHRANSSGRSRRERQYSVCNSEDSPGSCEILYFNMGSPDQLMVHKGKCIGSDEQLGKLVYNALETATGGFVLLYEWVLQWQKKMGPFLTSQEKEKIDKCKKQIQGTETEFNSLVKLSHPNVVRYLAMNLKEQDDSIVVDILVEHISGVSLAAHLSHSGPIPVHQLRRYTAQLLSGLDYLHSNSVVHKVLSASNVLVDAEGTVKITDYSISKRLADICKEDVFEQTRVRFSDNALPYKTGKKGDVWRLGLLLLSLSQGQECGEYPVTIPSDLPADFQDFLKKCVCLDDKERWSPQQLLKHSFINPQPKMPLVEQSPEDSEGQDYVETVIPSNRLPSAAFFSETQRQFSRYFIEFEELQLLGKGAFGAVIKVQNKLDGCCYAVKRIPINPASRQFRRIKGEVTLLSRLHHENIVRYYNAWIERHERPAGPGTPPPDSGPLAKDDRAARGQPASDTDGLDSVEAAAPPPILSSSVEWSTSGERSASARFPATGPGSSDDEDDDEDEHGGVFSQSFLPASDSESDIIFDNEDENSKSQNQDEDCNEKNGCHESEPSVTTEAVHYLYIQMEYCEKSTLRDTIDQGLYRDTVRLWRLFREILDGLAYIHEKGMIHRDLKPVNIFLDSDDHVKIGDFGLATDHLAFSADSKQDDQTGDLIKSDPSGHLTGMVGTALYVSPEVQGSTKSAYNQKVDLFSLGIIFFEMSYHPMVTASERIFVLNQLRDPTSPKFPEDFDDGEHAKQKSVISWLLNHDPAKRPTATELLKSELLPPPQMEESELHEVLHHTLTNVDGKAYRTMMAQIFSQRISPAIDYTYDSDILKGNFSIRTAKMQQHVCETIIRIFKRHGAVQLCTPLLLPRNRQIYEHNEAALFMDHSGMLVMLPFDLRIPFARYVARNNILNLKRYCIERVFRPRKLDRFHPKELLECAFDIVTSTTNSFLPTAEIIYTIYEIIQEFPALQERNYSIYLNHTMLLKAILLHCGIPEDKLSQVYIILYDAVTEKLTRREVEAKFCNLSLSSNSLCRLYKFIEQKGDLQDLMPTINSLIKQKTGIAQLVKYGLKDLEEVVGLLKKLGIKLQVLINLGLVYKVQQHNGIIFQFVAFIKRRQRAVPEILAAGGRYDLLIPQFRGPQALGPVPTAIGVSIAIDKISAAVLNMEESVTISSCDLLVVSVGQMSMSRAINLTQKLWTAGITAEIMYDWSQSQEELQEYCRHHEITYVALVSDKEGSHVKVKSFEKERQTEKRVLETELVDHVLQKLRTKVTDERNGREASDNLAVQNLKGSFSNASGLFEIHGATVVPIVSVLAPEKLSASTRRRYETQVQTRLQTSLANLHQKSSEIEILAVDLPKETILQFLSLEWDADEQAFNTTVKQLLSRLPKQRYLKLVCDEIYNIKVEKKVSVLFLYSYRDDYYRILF
In general terms: Fluorescence polarisation rises when a labelled molecule tumbles more slowly, as on binding a larger partner.

Where [2] appears, read: compounds of Formula II, biomarker assay, phosphorylated eIF2α Ser51 in borrelidin-treated U2OS cells.
[3] abbreviates: compounds of Formula II, 4 nM GCN2 kinase.
The mark [4] stands for this setting: compounds of Formula IV, biomarker assay, phosphorylated eIF2α Ser51 in borrelidin-treated U2OS cells.
Setting [5] is: Enzyme activity for compounds of Formula IV, Ki(app), 25° C.

By IC50 is commonly meant the concentration at which inhibition is half-maximal.

Molecules are shown by their SMILES. Read-outs that look alike come from different tables or passages of the source. Where only a bound is given, the exact number is not on record here.

Sequence of intracellular GCN2 (phosphorylation of the GCN2 substrate eIF2α) (Q9P2K8 whole entry): as above

Consider `OCCC1CCCN(c2cc(-c3cnc4ccc(C(F)F)nn34)ncn2)C1` (centres unmarked) [II-497, 2-(1-(6-(6-(Difluoromethyl)imidazo[1,2-b]pyridazin-3-yl)pyrimidin-4-yl)piperidin-3-yl)ethan-1-ol], for which the IC50 in experiment [1] (setting [2]) was 0.5 to 5 µM. For the same compound, the Ki at GCN2 kinase (setting [3]) lay within 0.01 to 1 µM.

With `N#Cc1cccc(C(=O)N[C@H]2CCCN(c3ccnc(-c4cnc5cnc(C(F)(F)F)cn45)n3)C2)c1` [IV-741], the IC50 in experiment [1] (setting [4]) was above 5 µM. Further, the Ki on GCN2 kinase (setting [5]) is above 1 µM.

Take `NS(=O)(=O)C1CCN(c2cc(-c3cnc4ccc(C(F)F)nn34)ncn2)C1` (centres unmarked) [II-192, 1-(6-(6-(Difluoromethyl)imidazo[1,2-b]pyridazin-3-yl)pyrimidin-4-yl)pyrrolidine-3-sulfonamide]: the IC50 in experiment [1] (setting [2]) is above 5 µM. The Ki at GCN2 kinase (setting [3]) fell in the range of 0.01 to 1 µM.

The compound `FC(F)(F)c1cn2c(-c3nccc(N4CCCOCC4)n3)cnc2cn1` [IV-427, 4-(2-(6-(Trifluoromethyl)imidazo[1,2-a]pyrazin-3-yl)pyrimidin-4-yl)-1,4-oxazepane] yielded an IC50 in experiment [1] (setting [4]) above 5 µM. This compound also gave a Ki on GCN2 kinase (setting [5]) of 0.1 to 1 µM.

`FC(F)c1cn2c(-c3nccc(N4CCCC(c5cscn5)C4)n3)cnc2cn1` (centres unmarked) [IV-174, 4-(1-(2-(6-(Difluoromethyl)imidazo[1,2-a]pyrazin-3-yl)pyrimidin-4-yl)piperidin-3-yl)thiazole] showed an IC50 in experiment [1] (setting [4]) above 5 µM. At GCN2 kinase (setting [5]), this compound showed a Ki of 0.1 to 1 µM.

In turn, `OCCC1CCN(c2ccnc(-c3cnc4cnc(C(F)(F)F)cn34)n2)CC1` [IV-442, 2-(1-(2-(6-(Trifluoromethyl)imidazo[1,2-a]pyrazin-3-yl)pyrimidin-4-yl)piperidin-4-yl)ethan-1-ol] displayed an IC50 in experiment [1] (setting [4]) above 5 µM. The compound further showed a Ki at GCN2 kinase (setting [5]) of 0.1 to 1 µM.

In turn, `CC1C(c2cn[nH]c2)CCN1c1ccnc(-c2cnc3cnc(C(F)(F)F)cn23)n1` (centres unmarked) [IV-689, 3-(4-(2-Methyl-3-(1H-pyrazol-4-yl)pyrrolidin-1-yl)pyrimidin-2-yl)-6-(trifluoromethyl)imidazo[1,2-a]pyrazine] returned an IC50 in experiment [1] (setting [4]) above 5 µM. The compound further showed a Ki on GCN2 kinase (setting [5]) of 0.01 to 0.1 µM.

The compound `CC1CN(c2cc(-c3cnc4ccc(C#N)nn34)ncn2)C(C)C(c2cn[nH]c2)N1` (centres unmarked) [II-693] yielded an IC50 in experiment [1] (setting [2]) of 0.5 to 5 µM. Besides, the Ki on GCN2 kinase (setting [3]) lay within 0.01 to 1 µM.

As to `CC1CCC(CNS(C)(=O)=O)CN1c1cc(-c2cnc3ccc(C(F)F)nn23)ncn1` (centres unmarked) [II-246, N-((1-(6-(6-(Difluoromethyl)imidazo[1,2-b]pyridazin-3-yl)pyrimidin-4-yl)-6-methylpiperidin-3-yl)methyl)methanesulfonamide], the IC50 in experiment [1] (setting [2]) was above 5 µM. The Ki on GCN2 kinase (setting [3]) was 0.01 to 1 µM.

Turning to `C[C@@H]1C[C@H](c2c[nH]nc2F)CN(c2ccnc(-c3cnc4cnc(C(F)(F)F)cn34)n2)C1` [IV-766], the IC50 in experiment [1] (setting [4]) was below 0.5 µM; at GCN2 kinase (compounds of Formula IV, 4 nM GCN2 kinase) it was 0.01 to 1 µM.

Take `CS(=O)(=O)NCC1CN(c2cc(-c3cnc4ccc(C(F)F)nn34)ncn2)CCC1(F)F` (single isomer, unassigned) [II-2, N-((1-(6-(6-(Difluoromethyl)imidazo[1,2-b]pyridazin-3-yl)pyrimidin-4-yl)-4,4-difluoropiperidin-3-yl)methyl)methanesulfonamide]: in experiment [1] (setting [2]), the IC50 lay in the range of 0.5 to 5 µM. In addition, the Ki at GCN2 kinase (setting [3]) is below 0.01 µM.

In turn, `CC1C(CS(C)(=N)=O)CCCN1c1cc(-c2cnc3ccc(C(F)F)nn23)ncn1` (centres unmarked) [II-487, ((1-(6-(6-(Difluoromethyl)imidazo[1,2-b]pyridazin-3-yl)pyrimidin-4-yl)-2-methylpiperidin-3-yl)methyl)(imino)(methyl)-λ^6-sulfanone] came in with an IC50 in experiment [1] (setting [2]) below 0.5 µM. On GCN2 kinase (setting [3]), this compound came in with a Ki of 0.01 to 1 µM.

As for `FC(F)(F)c1cn2c(-c3nccc(N4CCOC(c5cn[nH]c5)C4)n3)cnc2s1` (centres unmarked) [Compound V-15, 2-(1H-Pyrazol-4-yl)-4-[2-[2-(trifluoromethyl)imidazo[2,1-b]thiazol-5-yl]pyrimidin-4-yl]morpholine], in experiment [1] (compounds of Formula V, U2OS cells, 10 μM borrelidin, 1 h, read-out: GCN2 Biomarker (IC50)), the IC50 is below 0.5 µM. Moreover, the Ki at GCN2 kinase (compounds of Formula V, 4 nM GCN2 kinase) was below 0.01 µM.
